Data: patent US9315475B2 (MERCK SHARP & DOHME CORP., priority 2011, dated 2016)

Key:
[1] = test system: HIV-1 (H9IIIB strain); assay: Antiviral acute infection assay in cell culture (Spread); format: cell-based; conditions: Human immunodeficiency virus 1, T-lymphoid, HIV-1 H9IIIB infection of MT-4 human T-lymphoid cells in 10% FBS; mean of at least two independent experiments
Description: Antiviral Assays in Cell Culture (“Spread”)
Acute Infection Assay (“Spread”) data were generated using HIV-1 (H9IIIB strain) infection of MT-4 human T-lymphoid cells in 10% FBS, and according to the methods disclosed by J. P. Vacca et al, “L-735,524: An orally bioavailable human immunodeficiency virus type 1 protease inhibitor,” Proc. Natl. Acad. Sci. USA, Vol. 91, pp. 4096-4100 (April 1994).

[2] = target: T1, wildtype HIV-1 protease (Human immunodeficiency virus type 1 group M subtype B, UniProt P04585); assay: Assay for inhibition of microbial expressed HIV protease (Pepcleav); format: biochemical; conditions: wild type HIV-1 protease expressed in E. coli, peptide substrate, pH 5.5; mean of at least two independent experiments; read-out: Pepcleav
T1 construct: the wildtype HIV-1 protease (which was expressed in Escherichia coli); made in house; host or cells: Escherichia coli
In short: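 E. coli-expressed wild-type HIV-1 protease (20 pM) preincubated 30 min at room temperature with inhibitor in pH 5.5 sodium acetate/NaCl/BSA buffer, then 400 μM Val-Ser-Gln-Asn-(βnaphthyl)Ala-Pro-Ile-Val added for 1 h at 30 °C. Quenched with formic acid; product quantified by LC-MS/MS peak area, indinavir internal standard.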

Structure (SMILES) | EC50 [1] [nM] | IC50 [2] [nM]
N[C@H](C(=O)Nc1cncc(F)c1CC[C@@H]1CN[C@H](COC(=O)NCC(F)(F)F)CO1)[C@@H](c1ccc(F)cc1)c1cc(F)ccc1F [Example 268, (βS)-2,5-difluoro-β-(4-fluorophenyl)-N-(5-fluoro-4-{2-[(2R,5S)-5-({[(2,2,2-trifluoroethyl)carbamoyl]oxy}methyl)morpholin-2-yl]ethyl}pyridin-3-yl)-L-phenylalaninamide] | 44 | 2.8
O=C(C[C@@H](c1ccc(F)cc1)c1cc(F)cc(F)c1)Nc1cccc(F)c1CC[C@@H]1CN[C@H](COC(=O)NCC(F)(F)F)CO1 [Example 147, {(3S,6R)-6-[2-(2-{[(3S)-3-(3,5-difluorophenyl)-3-(4-fluorophenyl)propanoyl]amino}-6-fluorophenyl)ethyl]morpholin-3-yl} methyl (2,2,2-trifluoroethyl)carbamate] | 120 | 4.9
COC(=O)N[C@H](C(=O)Nc1cccc(F)c1CC[C@@H]1CN[C@H](COC(=O)NCC(F)(F)F)CO1)[C@H](c1ccc(F)cc1)c1ccc(F)c(F)c1 [Example 295, (βR)-β-(3,4-difluorophenyl)-4-fluoro-N-(3-fluoro-2-{2-[(2R,5S)-5-({[(2,2,2-trifluoroethyl)carbamoyl]oxy}methyl)morpholin-2-yl]ethyl}phenyl)-Nα-(methoxy-carbonyl)-L-phenylalaninamide] | 13 | 2.5
N[C@H](C(=O)Nc1cncc(F)c1CC[C@@H]1CNC(COC(=O)NCC(F)(F)F)CO1)[C@@H](c1ccc(F)cc1)c1cc(F)cc(F)c1 (stereo in doubt) [Example 90, (2S,3S)-2-Amino-3-(4-fluorophenyl)-3-(3,5-difluorophenyl)-N-(5-fluoro-4-(2-((2R,5R)-5-(2,2,2-trifluoroethylaminocarbonyloxymethyl)morpholine-2-yl)ethyl)pyridin-3-yl)propanamide] | 49 | 2.4
CCNC(=O)OC[C@@H]1CO[C@H](CCc2c(F)cncc2NC(=O)[C@@H](N)C(c2ccc(F)cc2)c2ccc(F)cc2)CN1 [Example 207, N-(4-{2-[(2R,5S)-5-{[(ethylcarbamoyl)oxy]methyl}morpholin-2-yl]ethyl}-5-fluoropyridin-3-yl)-4-fluoro-β-(4-fluorophenyl)-L-phenylalaninamide] | 110 | 20
N[C@H](C(=O)Nc1cncc(F)c1CC[C@@H]1CN[C@H](COC(=O)NCC(F)(F)F)CO1)[C@H](c1ccc(F)cc1)c1ccc(C(F)(F)F)cc1 [Example 264, (βS)-β-(4-fluorophenyl)-N-(5-fluoro-4-{2-[(2R,5S)-5-({[(2,2,2-trifluoroethyl)carbamoyl]oxy}methyl)morpholin-2-yl]ethyl}pyridin-3-yl)-4-(trifluoromethyl)-L-phenylalaninamide] | 77 | 3.6
CN1CCC(NC(=O)OC[C@@H]2CO[C@H](CCc3c(F)cncc3NC(=O)[C@@H](N)C(c3ccc(F)cc3)c3ccc(F)cc3)CN2)C1=O (stereo partly drawn) [Example 252, 4-fluoro-N-(5-fluoro-4-{2-[(2R,5S)-5-({[(1-methyl-2-oxopyrrolidin-3-yl)carbamoyl]oxy}methyl)morpholin-2-yl]ethyl}pyridin-3-yl)-β-(4-fluorophenyl)-L-phenylalaninamide] | 160 | 7.7
CNC(=O)OC[C@@H]1CO[C@H](CCc2c(F)cncc2NC(=O)[C@@H](N)C(c2ccc(F)cc2)c2ccc(F)cc2)CN1 [Example 205, 4-fluoro-N-(5-fluoro-4-{2-[(2R,5S)-5-{[(methylcarbamoyl)oxy]methyl}morpholin-2-yl]ethyl}pyridin-3-yl)-β-(4-fluorophenyl)-L-phenylalaninamide] | 58 | 24
N[C@H](C(=O)Nc1cncc(F)c1CC[C@@H]1CN[C@H](COC(=O)NCc2cc3ccccc3cn2)CO1)C(c1ccc(F)cc1)c1ccc(F)cc1 [Example 239, {(3S,6R)-6-[2-(3-fluoro-5-{[4-fluoro-β-(4-fluorophenyl)-L-phenylalanyl]amino}pyridin-4-yl)ethyl]morpholin-3-yl}methyl (isoquinolin-3-ylmethyl)carbamatc] | 420 | 45
CC[C@@H](NC(=O)OC[C@@H]1CO[C@H](CCc2c(F)cncc2NC(=O)[C@@H](N)C(c2ccc(F)cc2)c2ccc(F)cc2)CN1)C(F)(F)F [Example 216] | 2000 | 3.3
COC(=O)N[C@H](C(=O)Nc1cccc(F)c1CC[C@@H]1CN[C@H](COC(=O)NCC(F)(F)F)CO1)[C@H](c1ccccc1)c1cccc(OC)c1 [Example 305, (βR)-N-(3-fluoro-2-{2-[(2R,5S)-5-({[(2,2,2-trifluoroethyl)carbamoyl]oxy}methyl)morpholin-2-yl]ethyl}phenyl)-3-methoxy-Nα-(methoxy-carbonyl)-β-phenyl-L-phenylalaninamide] | 42 | 230
N[C@H](C(=O)Nc1cccc(F)c1CC[C@@H]1CN[C@H](COC(=O)NCC(F)(F)F)CO1)[C@H](c1ccc(F)cc1)c1cccc(Cl)c1 [Example 257, (βR)-β-(3-chlorophenyl)-4-fluoro-N-(3-fluoro-2-{2-[(2R,5S)-5-({[(2,2,2-trifluoroethyl)carbamoyl]oxy}methyl)morpholin-2-yl]ethyl}phenyl)-L-phenylalaninamide] | 51 | 5.1
COC(=O)N[C@H](C(=O)Nc1cccc(F)c1CC[C@@H]1CN[C@H](COC(=O)NCC(F)(F)F)CO1)[C@H](c1ccccc1)c1ccc2ccccc2c1 [Example 290, (βR)-N-(3-fluoro-2-{2-[(2R,5S)-5-({[(2,2,2-trifluoroethyl)carbamoyl]oxy}methyl)morpholin-2-yl]ethyl}phenyl)-Nα-(methoxycarbonyl)-β-naphthalen-2-yl-L-phenylalaninamide] | 600 | 30
O=C(C[C@@H](c1ccc(F)cc1)c1cc(F)ccc1F)Nc1cncc(F)c1CC[C@@H]1CN[C@H](COC(=O)NCC(F)(F)F)CO1 [Example 149, {(3S,6R)-6-[2-(3-{[(3S)-3-(2,5-difluorophenyl)-3-(4-fluorophenyl)propanoyl]amino}-5-fluoropyridin-4-yl)ethyl]morpholin-3-yl}methyl (2,2,2-trifluoroethyl)carbamate] | 14 | 1.4
N[C@H](C(=O)Nc1cc(F)cc(F)c1OC[C@@H]1CN[C@H](COC(=O)NCC(F)(F)F)CO1)C(c1ccc(F)cc1)c1ccc(F)cc1 [Example 245, N-(3,5-difluoro-2-{[(2S,5S)-5-({[(2,2,2-trifluoroethyl)carbamoyl]oxy}methyl)morpholin-2-yl]methoxy}phenyl)-4-fluoro-β-(4-fluorophenyl)-L-phenylalaninamide] | 360 | 16
CCC[C@H](c1ccccc1)[C@H](NC(=O)OC)C(=O)Nc1cccc(F)c1CC[C@@H]1CN[C@H](COC(=O)NCC(F)(F)F)CO1 [Example 293, (βR)-N-(3-fluoro-2-{2-[(2R,5S)-5-({[(2,2,2-trifluoroethyl)carbamoyl]oxy}methyl)morpholin-2-yl]ethyl}phenyl)-Nα-(methoxycarbonyl)-β-propyl-L-phenylalaninamide] | 80 | 100
COC(=O)N[C@H](C(=O)Nc1cncc(F)c1CC[C@@H]1CN[C@H](COC(=O)NCC(F)(F)F)CO1)[C@H](c1ccc(F)cc1)c1ccc(Br)cc1 [Example 298, (βR)-β-(4-bromophenyl)-4-fluoro-N-(5-fluoro-4-{2-[(2R,5S)-5-({[(2,2,2-trifluoroethyl)carbamoyl]oxy}methyl)morpholin-2-yl]ethyl}pyridin-3-yl)-Nα-(methoxycarbonyl)-L-phenylalaninamide] | 14 | 0.3
N[C@H](C(=O)Nc1cccc(F)c1CC[C@@H]1CN[C@H](COC(=O)NCc2cccnc2)CO1)C(c1ccc(F)cc1)c1ccc(F)cc1 [Example 201, 4-fluoro-β-(4-fluorophenyl)-N-(3-fluoro-2-{2-[(2R,5S)-5-({[(pyridin-3-ylmethyl)carbamoyl]oxy}methyl)morpholin-2-yl]ethyl}phenyl)-L-phenylalaninamide] | 80 | 28
COC(=O)N[C@H](C(=O)Nc1cncc(F)c1CC[C@@H]1CN[C@H](COC(=O)NCC(F)(F)F)CO1)[C@H](c1ccccc1)c1ccc(Cl)cc1 [Example 107, (βR)-β-(4-Chlorophenyl)-N-(5-fluoro-4-{2-[(2R,5S)-5-({[(2,2,2-trifluoroethyl)carbamoyl]oxy}methyl)morpholin-2-yl]ethyl}pyridin-3-yl)-Nα-(methoxycarbonyl)-L-phenylalaninamide] | 11 | 0.3
N[C@H](C(=O)Nc1cc(F)cc(F)c1CC[C@@H]1CN[C@H](COC(=O)NCC(F)(F)F)CO1)C(c1ccc(F)cc1)c1ccc(F)cc1 [Example 247, N-(3,5-difluoro-2-{2-[(2R,5S)-5-({[(2,2,2-trifluoroethyl)carbamoyl]oxy}methyl)morpholin-2-yl]ethyl}phenyl)-4-fluoro-β-(4-fluorophenyl)-L-phenylalaninamide] | 260 | 12
C[C@H](Oc1c(F)cccc1NC(=O)[C@@H](N)C(c1ccc(F)cc1)c1ccc(F)cc1)[C@@H]1CN[C@H](COC(=O)NCC(F)(F)F)CO1 [Example 193, 4-fluoro-β-(4-fluorophenyl)-N-(3-fluoro-2-{(1S)-1-[(2S,5S)-5-({[(2,2,2-trifluoroethyl)carbamoyl]oxy}methyl)morpholin-2-yl]ethoxy}phenyl)-L-phenylalaninamide] | 1400 | 120
